According to patent US11878965B2, “Inhibitors of peptidylarginine deiminases” (Gilead Sciences, Inc., priority 2020, dated 2024):

Target: human PAD4 (Homo sapiens (Human), UniProt Q9UM07)
Test: In Vitro PAD4 BAEE Biochemical Assay
Details: human PAD4, BAEE substrate; 5 nM PAD4, 2 mM calcium chloride, 3 mM BAEE; geometric mean of multiple experiments
How it was run: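 Deimination of BAEE substrate (3 mM) measured as ammonia via o-phthalaldehyde–DTT isoindole fluorescence, 405/535 nm. Tag-free bacterially expressed human PAD4 at 5 nM with 2 mM calcium chloride, pH 7.6 MOPS buffer, 30 min compound preincubation then 2 h reaction, both at 25 °C.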

Chain of human PAD4 (Q9UM07 2-663): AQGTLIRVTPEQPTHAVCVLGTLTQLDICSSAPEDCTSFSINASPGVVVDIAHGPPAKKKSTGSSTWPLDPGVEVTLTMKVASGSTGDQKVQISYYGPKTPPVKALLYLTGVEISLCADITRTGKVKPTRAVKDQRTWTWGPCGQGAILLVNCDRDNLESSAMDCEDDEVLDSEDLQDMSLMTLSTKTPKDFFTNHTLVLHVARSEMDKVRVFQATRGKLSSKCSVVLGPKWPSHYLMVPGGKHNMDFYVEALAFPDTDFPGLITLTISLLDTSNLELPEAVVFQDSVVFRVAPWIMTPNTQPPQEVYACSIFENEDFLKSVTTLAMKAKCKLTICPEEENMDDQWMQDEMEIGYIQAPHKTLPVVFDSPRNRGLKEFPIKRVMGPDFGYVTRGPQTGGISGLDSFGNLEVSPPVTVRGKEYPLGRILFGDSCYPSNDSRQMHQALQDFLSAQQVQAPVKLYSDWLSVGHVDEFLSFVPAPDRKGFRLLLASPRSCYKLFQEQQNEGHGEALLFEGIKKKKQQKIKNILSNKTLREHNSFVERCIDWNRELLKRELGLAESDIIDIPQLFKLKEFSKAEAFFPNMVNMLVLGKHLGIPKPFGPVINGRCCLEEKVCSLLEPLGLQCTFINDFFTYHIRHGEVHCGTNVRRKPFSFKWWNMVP

IC50 [nM] | Structure (SMILES)
584 | COc1cc(C(=O)N2C[C@H](N)CC[C@@H]2C)cc2nc(-c3cc4ccc(-c5cccc6c5CNC6=O)nc4n3CC3CC3)n(C)c12 [Example 262, 4-(2-(5-((2S,5R)-5-amino-2-methylpiperidine-1-carbonyl)-7-methoxy-1-methyl-1H-benzo[d]imidazol-2-yl)-1-(cyclopropylmethyl)-1H-pyrrolo[2,3-b]pyridin-6-yl)isoindolin-1-one]
129 | COc1cc(C(=O)N2C[C@H](N)CCN2C)cc2nc(-c3cc4ccc([C@@H](C)NC(=O)c5c(F)cccc5F)nc4n3CC3CC3)n(C)c12 [Example 210, N-((R)-1-(2-(5-((R)-5-amino-2-methylhexahydropyridazine-1-carbonyl)-7-methoxy-1-methyl-1H-benzo[d]imidazol-2-yl)-1-(cyclopropylmethyl)-1H-pyrrolo[2,3-b]pyridin-6-yl)ethyl)-2,6-difluorobenzamide]
164 | CCS(=O)(=O)N(C)c1ccc2cc(-c3nc4cc(C(=O)N5CCC[C@@H](N)C5)cc(OC)c4n3C)n(CC3CC3)c2n1 [Example 7, (R)-N-(2-(5-(3-aminopiperidine-1-carbonyl)-7-methoxy-1-methyl-1H-benzo[d]imidazol-2-yl)-1-(cyclopropylmethyl)-1H-pyrrolo [2,3-b]pyridin-6-yl)-N-methylethanesulfonamide]
166 | COc1cc(C(=O)N2C[C@H](N)CCN2C)cc2nc(-c3cc4ccc([C@@H](C)NC(=O)c5c(F)cccc5C(F)(F)F)nc4n3CC3CC3)n(C)c12 [Example 198, N-((R)-1-(2-(5-((R)-5-amino-2-methylhexahydropyridazine-1-carbonyl)-7-methoxy-1-methyl-1H-benzo[d]imidazol-2-yl)-1-(cyclopropylmethyl)-1H-pyrrolo[2,3-b]pyridin-6-yl)ethyl)-2-fluoro-6-(trifluoromethyl)benzamide]
324 | COc1cc(C(=O)N2C[C@H](N)CC[C@@H]2C)cc2nc(-c3cc4ccc(-c5c(C)ccnc5-c5sc(C)nc5C)nc4n3CC3CC3)n(C)c12 [Example 269, ((2S,5R)-5-amino-2-methylpiperidin-1-yl)(2-(1-(cyclopropylmethyl)-6-(2-(2,4-dimethylthiazol-5-yl)-4-methylpyridin-3-yl)-1H-pyrrolo[2,3-b]pyridin-2-yl)-7-methoxy-1-methyl-1H-benzo[d]imidazol-5-yl)methanone]
50000 | COc1cc(C(=O)N2CC3(CCCCN3)C2)cc2nc(-c3cc4ccc(N(C(F)F)S(C)(=O)=O)nc4n3CC3CC3)n(C)c12 [Example 76, N-(1-(cyclopropylmethyl)-2-(7-methoxy-1-methyl-5-(2,5-diazaspiro[3.5]nonane-2-carbonyl)-1H-benzo[d]imidazol-2-yl)-1H-pyrrolo[2,3-b]pyridin-6-yl)-N-(difluoromethyl) methanesulfonamide]
1120 | COc1cc(C(=O)N2CCC[C@@H](N)C2)cc2nc(-c3cc4ccc(N(C)C(=O)N(C)C)nc4n3CC3CC3)n(C)c12 [Example 117, (R)-1-(2-(5-(3-aminopiperidine-1-carbonyl)-7-methoxy-1-methyl-1H-benzo[d]imidazol-2-yl)-1-(cyclopropylmethyl)-1H-pyrrolo[2,3-b]pyridin-6-yl)-1,3,3-trimethylurea]
149 | COc1cc(C(=O)N2C[C@H](N)CCN2C)cc2nc(-c3cc4ccc([C@@H](C)NC(=O)C56CC(C(F)(F)F)(C5)C6)nc4n3CC3CC3)n(C)c12 [Example 188, N-((R)-1-(2-(5-((R)-5-amino-2-methylhexahydropyridazine-1-carbonyl)-7-methoxy-1-methyl-1H-benzo[d]imidazol-2-yl)-1-(cyclopropylmethyl)-1H-pyrrolo[2,3-b]pyridin-6-yl)ethyl)-3-(trifluoromethyl)bicyclo [1.1.1]pentane-1-carboxamide]
12700 | COc1cc(C(=O)N2CCCC(C)(N)C2)cc2nc(-c3cc4ccc(N(C(F)F)S(C)(=O)=O)nc4n3CC3CC3)n(C)c12 (centres unmarked) [Example 52, N-(2-(5-(3-amino-3-methylpiperidine-1-carbonyl)-7-methoxy-1-methyl-1H-benzo[d]imidazol-2-yl)-1-(cyclopropylmethyl)-1H-pyrrolo [2,3-b]pyridin-6-yl)-N-(difluoromethyl) methanesulfonamide]
5760 | COC(=O)Nc1ccc2cc(-c3nc4cc(C(=O)N5CCC[C@@H](N)C5)cc(OC)c4n3C)n(CC3CC3)c2n1 [Example 108, (R)-methyl (2-(5-(3-aminopiperidine-1-carbonyl)-7-methoxy-1-methyl-1H-benzo[d]imidazol-2-yl)-1-(cyclopropylmethyl)-1H-pyrrolo[2,3-b]pyridin-6-yl)carbamate]
92.7 | COc1cc(C(=O)N2CCC[C@@H](N)C2)cc2nc(-c3cc4ccc(N(C(F)F)S(=O)(=O)C5CC5)nc4n3CC3CC3)n(C)c12 [Example 27, (R)-N-(2-(5-(3-aminopiperidine-1-carbonyl)-7-methoxy-1-methyl-1H-benzo[d]imidazol-2-yl)-1-(cyclopropylmethyl)-1H-pyrrolo [2,3-b]pyridin-6-yl)-N-(difluoromethyl) cyclopropanesulfonamide]
89.6 | CS(=O)(=O)N(c1ccc2cc(-c3nc4cc(C(=O)N5C[C@H]6CC[C@@H]5[C@@H]6N)ccc4n3C3CC3)n(CC3CC3)c2n1)C(F)F [Example 55, N-(2-(5-((1R,4R,7R)-7-amino-2-azabicyclo[2.2.1]heptane-2-carbonyl)-1-cyclopropyl-1H-benzo[d]imidazol-2-yl)-1-(cyclopropylmethyl)-1H-pyrrolo[2,3-b]pyridin-6-yl)-N-(difluoromethyl) methanesulfonamide]

Structure (SMILES) | IC50 [nM]
COc1cc(C(=O)N2[C@H]3CC[C@@H]2[C@H](N)C3)cc2nc(-c3cc4cc(F)c(CCNC(=O)C56CC(F)(C5)C6)cc4n3CC3CC3)n(C)c12 [Example 146, N-((R)-2-(2-(5-((1R,2R,4S)-2-amino-7-azabicyclo[2.2.1]heptane-7-carbonyl)-7-methoxy-1-methyl-1H-benzo[d]imidazol-2-yl)-1-(cyclopropylmethyl)-5-fluoro-1H-indol-6-yl)ethyl)-3-fluorobicyclo[1.1.1]pentane-1-carboxamide] | 45.8
COc1cc(C(=O)N2[C@H]3CC[C@@H]2[C@H](N)C3)cc2nc(-c3cc4ccc([C@@H](C)NC(=O)c5c(F)cccc5F)cc4n3CC3CC3)n(C3CC3)c12 [Example 148, N-((R)-1-(2-(5-((1R,2R,4S)-2-amino-7-azabicyclo[2.2.1]heptane-7-carbonyl)-1-cyclopropyl-7-methoxy-1H-benzo[d]imidazol-2-yl)-1-(cyclopropylmethyl)-1H-indol-6-yl)ethyl)-2,6-difluorobenzamide] | 123
COc1cc(C(=O)N2[C@H]3CC[C@@H]2[C@H](N)C3)cc2nc(-c3cc4ccc([C@@H](C)NC(=O)c5cnc(C)o5)cc4n3CC3CC3)n(C)c12 [Example 138, N-((R)-1-(2-(5-((1R,2R,4S)-2-amino-7-azabicyclo[2.2.1]heptane-7-carbonyl)-7-methoxy-1-methyl-1H-benzo[d]imidazol-2-yl)-1-(cyclopropylmethyl)-1H-indol-6-yl)ethyl)-2-methyloxazole-5-carboxamide] | 27.6
COc1cc(C(=O)N2[C@H]3CC[C@@H]2[C@H](N)C3)cc2nc(-c3cc4ccc([C@@H](C)NC(=O)C(C)(C)OC)cc4n3CC3CC3)n(C)c12 [Example 140, N-((R)-1-(2-(5-((1R,2R,4S)-2-amino-7-azabicyclo[2.2.1]heptane-7-carbonyl)-7-methoxy-1-methyl-1H-benzo[d]imidazol-2-yl)-1-(cyclopropylmethyl)-1H-indol-6-yl)ethyl)-2-methoxy-2-methylpropanamide] | 26.1
COc1cc(C(=O)N2[C@H]3CC[C@@H]2[C@H](N)C3)cc2nc(-c3cc4ccc([C@@H](C)NC(C)=O)nc4n3CC3CC3)n(C)c12 [Example 118, N-((R)-1-(2-(5-((1R,2R,4S)-2-amino-7-azabicyclo[2.2.1]heptane-7-carbonyl)-7-methoxy-1-methyl-1H-benzo[d]imidazol-2-yl)-1-(cyclopropylmethyl)-1H-pyrrolo[2,3-b]pyridin-6-yl)ethyl)acetamide] | 45.6

Same assay, conditions: recombinant PAD4 5 nM, 2 mM calcium chloride, 3 mM BAEE substrate; geometric mean of multiple experiments

IC50 [nM] | Structure (SMILES)
129 | COc1cc(C(=O)N2C[C@H](N)[C@@H]3CC[C@H]2C3)cc2nc(-c3cc4ccc([C@@H](C)NC(=O)C(C)(C)CC(F)(F)F)nc4n3CC3CC3)n(C)c12 [Example 329, N-((R)-1-(2-(5-((1S,4R,5R)-4-amino-2-azabicyclo[3.2.1]octane-2-carbonyl)-7-methoxy-1-methyl-1H-benzo[d]imidazol-2-yl)-1-(cyclopropylmethyl)-1H-pyrrolo[2,3-b]pyridin-6-yl)ethyl)-4,4,4-trifluoro-2,2-dimethylbutanamide]
70.8 | COc1cc(C(=O)N2C[C@H](N)[C@@H]3CC[C@H]2C3)cc2nc(-c3cc4ccc([C@@H](C)NC(=O)[C@@H]5C[C@H]5F)nc4n3CC3CC3)n(C)c12 [Example 288, (1S,2R)-N-((R)-1-(2-(5-((1S,4R,5R)-4-amino-2-azabicyclo[3.2.1]octane-2-carbonyl)-7-methoxy-1-methyl-1H-benzo[d]imidazol-2-yl)-1-(cyclopropylmethyl)-1H-pyrrolo[2,3-b]pyridin-6-yl)ethyl)-2-fluorocyclopropane-1-carboxamide]
111 | COc1cc(C(=O)N2C[C@H](N)[C@@H]3CC[C@H]2C3)cc2nc(-c3cc4ccc([C@@H](C)NC(=O)c5ccc(C(F)F)nc5)nc4n3CC3CC3)n(C3CC3)c12 [Example 309, N-((R)-1-(2-(5-((1S,4R,5R)-4-amino-2-azabicyclo[3.2.1]octane-2-carbonyl)-1-cyclopropyl-7-methoxy-1H-benzo[d]imidazol-2-yl)-1-(cyclopropylmethyl)-1H-pyrrolo[2,3-b]pyridin-6-yl)ethyl)-6-(difluoromethyl)nicotinamide]
